In patent US11766470B2, “Manufacture, formulation and dosing of apraglutide” (VectivBio AG, priority 2020, dated 2023):
Where “and” joins values, the source holds several entries; their conditions need not be identical. Equal entries are not always repeated. Marks after values point to notes of the source that are not given here. Square brackets hold non-standard residues; d marks the D form. Peptide text beside a SMILES is read from it. ξ: configuration not given here. Ile(3ξ) = CCC(C)[C@H](N)C(=O)O; Thr(3ξ) = CC(O)[C@H](N)C(=O)O; Nle = CCCC[C@H](N)C(=O)O

Assays:
patients with SBS-IF = experiment: Safety assessments (adverse events) in Phase 2 SBS-IF trial (Example 5)
Description: In Part A, patients were treated with 5 mg apraglutide or placebo once weekly for 4 weeks. After a washout period of 6-10 weeks, the alternate treatment was given. Part A was followed by a second washout period of 6-10 weeks before patients entered Part B. Part B was an open-label dosing regimen with 10 mg apraglutide given once weekly for 4 weeks. The additional open-label treatment period (Part B) was included to investigate the safety and tolerability of 10 mg dosing. The procedures during each treatment period were consistent. The trial drug was provided as a freeze-dried powder for reconstitution and was administered as subcutaneous injections in the abdominal area.
Safety assessments were performed for each treatment period and included observation for injection site reactions, vital signs, blood samples, electrocardiogram (ECG), dipstick urinalysis, body weight and liver enzymes. […] Additionally, liver enzymes were measured prior to each drug administration.

[1] = system: anti-apraglutide antibodies; experiment: Anti-apraglutide antibodies ELISA in serum, Phase 2 metabolic balance trial (Example 6); assay type: in vivo, human
Description: Blood samples for analysis of the plasma concentration of apraglutide and plasma concentration of fasting L-citrulline, a marker of enterocyte mass, were collected at baseline, during first and second injection (pre-dose and at sequential timepoints), four days after first injection and at the end of treatment. Blood sampling for apraglutide pharmacokinetics was also performed after the fourth and last injection covering 96 hours. […] Blood samples for anti-apraglutide antibodies were collected at baseline, at the end of treatment and at the 4-6 weeks follow-up visit. All eight patients tested negative for anti-apraglutide antibodies at baseline.
A fully validated ELISA method was used for the detection of anti-apraglutide antibodies in serum, following a three-tiered assay approach. In the first tier, anti-apraglutide antibodies present in samples and controls bonded to apraglutide immobilized on a microtiter plate. The bound anti-apraglutide antibodies were then detected with protein A/G and protein L. A sample with a signal above the validated screening cut-point was considered potentially positive and was then tested in the second tier, the confirmatory assay. For this, samples were pre-treated with an excess of apraglutide prior to testing them in the assay described above. […] Titers were then determined by serial dilution of all confirmed positive samples.

[2] = Multiple dose study in healthy volunteers (Examples 4 and 7), pharmacokinetics of plasma apraglutide, non-compartmental analysis; details: for CL/F / AUC(0-t): human, plasma, sc
Description: 23 healthy adult volunteers received 6 weekly subcutaneous doses of apraglutide (1, 5, or 10 mg) or placebo and were followed for a further 6 weeks after the last dose. Blood collections were controlled for diet, lifestyle, and diurnal effects. […] PK data underwent non-compartmental analysis and PD data were analyzed by ANCOVA.
As with citrulline, a statistical steady-state analysis per dose level was performed for apraglutide using Helmert's approach.

[3] = whole trial, incl. placebo periods

CCCC[C@H](NC(=O)[C@H](CCC(=O)O)NC(=O)[C@H](CC(=O)O)NC(=O)[C@H](CO)NC(=O)[C@H](Cc1ccccc1)NC(=O)[C@H](CO)NC(=O)CNC(=O)[C@H](CC(=O)O)NC(=O)CNC(=O)[C@@H](N)Cc1c[nH]cn1)C(=O)N[C@H](Cc1ccccc1)C(=O)N[C@H](C(=O)N[C@H](C(=O)N[C@@H](CC(C)C)C(=O)N[C@@H](CC(=O)O)C(=O)N[C@@H](CC(C)C)C(=O)N[C@@H](CC(C)C)C(=O)N[C@@H](C)C(=O)N[C@@H](C)C(=O)N[C@@H](CCCNC(=N)N)C(=O)N[C@@H](CC(=O)O)C(=O)N[C@@H](Cc1ccccc1)C(=O)N[C@H](C(=O)N[C@@H](CC(N)=O)C(=O)N[C@@H](Cc1c[nH]c2ccccc12)C(=O)N[C@@H](CC(C)C)C(=O)N[C@H](C(=O)N[C@@H](CCC(N)=O)C(=O)N[C@H](C(=O)N[C@@H](CCCCN)C(=O)N[C@H](C(=O)N[C@H](C(=O)N[C@@H](CC(=O)O)C(N)=O)C(C)O)C(C)CC)C(C)O)C(C)CC)C(C)CC)C(C)CC)C(C)O (stereo partly drawn) [apraglutide, L-histidyl-glycyl-L-aspartyl-glycyl-L-seryl-L-phenylalanyl-L-seryl-L-aspartyl-L-glutamyl-L-norleucyl-D-phenylalanyl-L-threonyl-Lisoleucyl-L-leucyl-L-aspartyl-L-leucyl-L-leucyl-L-alanyl-L-alanyl-L-arginyl-L-aspartyl-L-phenylalanyl-L-isoleucyl-L-asparaginyl-Ltryptophanyl-L-leucyl-L-isoleucyl-L-glutaminyl-L-threonyl-L-lysyl-L-isoleucyl-L-threonyl-Laspartic acid amide] (H-HGDGSFSDE[Nle][dF][Thr(3ξ)][Ile(3ξ)]LDLLAARDF[Ile(3ξ)]NWL[Ile(3ξ)]Q[Thr(3ξ)]K[Ile(3ξ)][Thr(3ξ)]D-NH2)
Any related adverse events, number of patients (patients with SBS-IF; 5 mg (N = 8)): 8 | Decreased appetite, number of patients (patients with SBS-IF; 5 mg (N = 8)): 1 | Edema, number of patients (patients with SBS-IF; 5 mg (N = 8)): 2 | Gastrointestinal stoma complication, number of patients (patients with SBS-IF; 5 mg (N = 8)): 5 | Gastrointestinal stoma output abnormal, number of patients (patients with SBS-IF; 5 mg (N = 8)): 4 | Gastrointestinal stoma output decreased, number of patients (patients with SBS-IF; 5 mg (N = 8)): 3 | Increased weight, number of patients (patients with SBS-IF; 5 mg (N = 8)): 1 | Polyuria, number of patients (patients with SBS-IF; 5 mg (N = 8)): 4 | Stoma complication, number of patients (patients with SBS-IF; 5 mg (N = 8)): 6 | Thirst decreased, number of patients (patients with SBS-IF; 5 mg (N = 8)): 3 | Injection site reactions, number of patients (patients with SBS-IF; 5 mg dose group): one | Any related adverse events, number of patients (patients with SBS-IF; 10 mg (N = 8)): 8 | Decreased appetite, number of patients (patients with SBS-IF; 10 mg (N = 8)): 2 | Edema, number of patients (patients with SBS-IF; 10 mg (N = 8)): 2 | Gastrointestinal stoma complication, number of patients (patients with SBS-IF; 10 mg (N = 8)): 5 | Gastrointestinal stoma output abnormal, number of patients (patients with SBS-IF; 10 mg (N = 8)): 4 | Gastrointestinal stoma output decreased, number of patients (patients with SBS-IF; 10 mg (N = 8)): 6 | Increased weight, number of patients (patients with SBS-IF; 10 mg (N = 8)): 2 | Polyuria, number of patients (patients with SBS-IF; 10 mg (N = 8)): 6 | Stoma complication, number of patients (patients with SBS-IF; 10 mg (N = 8)): 6 | Thirst decreased, number of patients (patients with SBS-IF; 10 mg (N = 8)): 4 | Injection site reactions, number of patients (patients with SBS-IF; 10 mg dose group): three | Safety and tolerability in words (patients with SBS-IF; 5 and 10 mg once weekly for four weeks): well tolerated and safe | Any related adverse events, number of patients (patients with SBS-IF; Total, all periods (N = 8)): 8 | Decreased appetite, number of patients (patients with SBS-IF; Total, all periods (N = 8)): 3 | Edema, number of patients (patients with SBS-IF; Total, all periods (N = 8)): 4 | Gastrointestinal stoma complication, number of patients (patients with SBS-IF; Total, all periods (N = 8)): 5 | Gastrointestinal stoma output abnormal, number of patients (patients with SBS-IF; Total, all periods (N = 8)): 5 | Gastrointestinal stoma output decreased, number of patients (patients with SBS-IF; Total, all periods (N = 8)): 6 | Increased weight, number of patients (patients with SBS-IF; Total, all periods (N = 8)): 3 | Polyuria, number of patients (patients with SBS-IF; Total, all periods (N = 8)): 7 | Stoma complication, number of patients (patients with SBS-IF; Total, all periods (N = 8)): 6 | Thirst decreased, number of patients (patients with SBS-IF; Total, all periods (N = 8)): 5 | Deaths (patients with SBS-IF; whole trial): no deaths | Injection site reactions, number of patients (patients with SBS-IF; whole trial): Three | Serious adverse events related to the trial drug (patients with SBS-IF; whole trial): None of these were considered related to the trial drug | Patients reporting serious adverse events (patients with SBS-IF; [3]): 5 patients | Serious adverse events, number of cases (patients with SBS-IF; [3]): 8 cases | Patients who developed anti-apraglutide antibodies ([1]; during the trial, patient with SBS-IF): One | Effects of anti-apraglutide antibodies on PK profile, pharmacodynamic response, adverse events ([1]; in vivo): No effects of anti-apraglutide antibodies were detected | 1st Ctrough, arithmetic mean ± SD ([2]; 1 mg): 0.000 ng/mL and 0.000 ± 0.000 ng/mL | 4th Ctrough, arithmetic mean ± SD ([2]; 1 mg): 0.873 ng/mL | AUCtau, arithmetic mean ± SD ([2]; 1 mg, (first dose)): 35.214 ng·days/mL | AUCtau/dose, Arithmetic mean ± standard deviation ([2]; 1 mg, (first dose)): 0.03037 ± 152.1 ng·days/mL/µg | AUCtau/dose, Arithmetic mean ± standard deviation ([2]; 1 mg, dose #6): 0.05813 ± 23.1 ng·days/mL/µg | 4th Ctrough, arithmetic mean ± SD ([2]; 5 mg): 10.163 ng/mL | 5th Ctrough, arithmetic mean ± SD ([2]; 5 mg): 7.605 ng/mL | AUCtau, arithmetic mean ± SD ([2]; 5 mg, (first dose)): 300.269 ng·days/mL | AUCtau/dose, Arithmetic mean ± standard deviation ([2]; 5 mg, (first dose)): 0.05407 ± 47.1 ng·days/mL/µg | AUCtau/dose, Arithmetic mean ± standard deviation ([2]; 5 mg, dose #6): 0.06595 ± 47.2 ng·days/mL/µg | Lambda_Z, Arithmetic mean ± standard deviation ([2]; 5 mg, dose #6 (N = 4)): 0.2384 ± 36.6** 1/d | Lambda_Z, arithmetic mean ± SD ([2]; 5 mg, dose #6 (N = 4)): 0.2508 ± 0.09871** 1/d | 2nd Ctrough, arithmetic mean ± SD ([2]; 10 mg): 18.460 ng/mL | 6th Ctrough, arithmetic mean ± SD ([2]; 10 mg): 13.710 ng/mL | AUCtau, arithmetic mean ± SD ([2]; 10 mg, (first dose)): 476.937 ng·days/mL | AUCtau/dose, Arithmetic mean ± standard deviation ([2]; 10 mg, (first dose)): 0.04291 ± 47.6 ng·days/mL/µg | Steady-state contrast: mean Ctrough over week 3 to 6 against week 2 ([2]; 10 mg, Helmert's approach): −3.616 | Lambda_Z, arithmetic mean ± SD ([2]; 10 mg, dose #6): 0.2463 ± 0.09975 day⁻¹ | AUCtau/dose, Arithmetic mean ± standard deviation ([2]; 10 mg, dose #6 (N = 5)): 0.05288 ± 52.4 ng·days/mL/µg | Lambda_Z, Arithmetic mean ± standard deviation ([2]; 10 mg, dose #6 (N = 5)): 0.231 ± 41.3* 1/d | Kinetics over the 1 to 10 mg dose range, in words ([2]; dose-normalized Cmax and AUCtau): follows linear kinetics | CL/F ([2]; 1 mg): 11.9 mL/min | AUC(0-t) ([2]; 1 mg, AUClast, Arithmetic mean ± standard deviation, dose #6): 1310 ng·h/mL | AUC(0-t) ([2]; 1 mg, AUClast, arithmetic mean ± SD, dose #6): 1360 ng·h/mL | AUC(0-t) ([2]; 1 mg, AUCtau, arithmetic mean ± SD, (first dose)): 845 ng·h/mL | CL/F ([2]; 5 mg): 10.5 mL/min | AUC(0-t) ([2]; 5 mg, AUClast, Arithmetic mean ± standard deviation, dose #6): 8500 ng·h/mL | AUC(0-t) ([2]; 5 mg, AUClast, arithmetic mean ± SD, dose #6): 9170 ng·h/mL
